Where two headings read alike, the source gives them in different places. Where a SMILES comes first, the peptide text is derived from it. Where no end group is shown, it is not given here. [ ]: non-standard residue; d: D form. The star is where a group is joined. PEG4 = NCCOCCOCCOCCOCCC(=O)O; Piperidide = C1CCN(*)CC1
Key:
[1] = tested on: H838 cell line; type: cell-based; conditions: 24 h
Experimental: (§1) MTT assay was conducted as previously described.^[ [44] ^] Tumor cell lines (NCI‐H460, NCI‐H838, HT‐1080, MCF‐7, PC‐3, U‐251‐MG, and U‐87 MG) were seeded in 96‐well plates at a density of 8000 cells per well in a volume of 100 µL and cultured for 24 h. Normal cell lines (HaCaT, HMEC‐1, MRC‐5, and HEK‐293) were seeded in 96‐well plates at a density of 10 000 cells per well in a volume of 100 µL and cultured for 48 h. After that, only tumor cell lines were starved with 100 µL of SFM for a further 4–6 h. Subsequently, cells were treated with 100 µL of compound solutions with different concentrations for 24 h. Cells treated with SFM and 0.5% DMSO in SFM served as blank control and growth control, respectively. Ten µL of MTT solution (5 mg mL^−1) was added to each well, followed by an additional incubation period of 2 h for tumor cells and 4 h for normal cells. Finally, the solvent in each well was swapped with 100 µL of DMSO to dissolve the formazan crystals. The absorbance was measured by the plate reader at 570 nm.
(§2) The cell viability was calculated (1) Cellviability%=ODSamplegroup−ODBlank/ODGrowthgroup−ODBlank×100%

[2] = tested on: HMEC-1 normal cell line; type: cell-based; conditions: 24 h
Experimental: as §1, §2

[3] = tested on: HT-1080 cell line; type: cell-based; conditions: 24 h
Experimental: as §1, §2

[4] = tested on: HaCaT normal cell line; type: cell-based; conditions: 24 h
Experimental: as §1, §2

[5] = tested on: MRC-5 normal cell line; type: cell-based; conditions: 24 h
Experimental: as §1, §2

[6] = tested on: HEK-293 normal cell line; experiment: cells; type: cell-based; conditions: 24 h
Experimental: as §1, §2

[7] = tested on: erythrocytes; type: cell-based; conditions: red cells of horse, 2 h
Experimental: Defibrinated horse blood (1 mL) was washed 3 times with 0.9% NaCl solution to remove plasma and then resuspended in 20 mL of 0.9% NaCl solution to obtain a red blood cell (RBC) suspension. Aliquots of the RBC suspension (100 µL) were incubated with 100 µL of compound solutions at concentrations ranging from 100 to 1.5625 µM (twofold serial dilution) for 2 h at 37 °C. RBCs treated with 0.9% NaCl solution and 1% Triton X‐100 solution served as blank and positive controls, respectively. Subsequently, the samples were centrifuged at 900 × g for 10 min, and the absorbance of the supernatant was measured at 570 nm.
The hemolysis ratio was calculated as (2) Hemolysis%=ODSamplegroup−ODBlank/ODPositivegroup−ODBlank×100%

[8] = tested on: H460 cell line; type: cell-based; conditions: 24 h
Experimental: as §1
The antimicrobial stability evaluation was determined in the presence of physiological concentrations of serum. Twenty five µL of compound solutions with the concentration of 3 mM and 25 µL of human serum were mixed. The mixture was incubated for 0, 2, 4, 6, 12, 24 h at 37 °C and then incubated for 15 min at 60 °C to inactivate the enzymes. […]

[9] = tested on: 5-Fluorouracil-resistance H460 cell line; type: cell-based; conditions: 24 h
Experimental: as §1
(§3) Wild type H460 cells were cultured in a T‐75 flask and exposed to 30 µM of cisplatin. Cells were passed when the confluency reached 90%. The IC50 value of cisplatin on this cell line was evaluated every two passages. After the IC50 value was higher than 500 µM, the cultured medium was changed to normal CGM, and the cell line was cultured for another three passages. The IC50 value was evaluated again to make sure the resistance was stable. The other three resistance cell lines establishment process was similar. […] Parental NCI‐H460 cells were exposed to 10 µM 5‐fluorouracil, 2.5 µM paclitaxel, or 2.5 µM etoposide to generate 5‐fluorouracil‐resistant, paclitaxel‐resistant, and etoposide‐resistant cell lines, respectively.

[10] = tested on: Cisplatin-resistance H460 cell line; type: cell-based; conditions: 24 h
Experimental: as §1, §3

[11] = tested on: Etoposide-resistance (DR-EPT) H460 cell line; type: cell-based; conditions: 24 h
Experimental: as §1, §3

[12] = tested on: Paclitaxel-resistance (DR-PTX) H460 cell line; type: cell-based; conditions: 24 h
Experimental: as §1, §3

[13] = tested on: H460 cell line; experiment: cells; type: cell-based; conditions: 24 h
Experimental: as §1, §2

[14] = Compound remaining evaluation in human serum; type: in vitro ADME; conditions: 37 °C, n = 2
Experimental: Compound solutions (50 µL, 3 mM) were mixed with human serum (50 µL) and incubated for 0, 2, 4, 6, 12, and 24 h at 37 °C. Ethanol (250 µL) was added to precipitate serum proteins, and the samples were centrifuged at 14 000 × g for 20 min at 4 °C. Subsequently, 150 µL of supernatant of each sample was analyzed with analytical HPLC and ESI‐MS/MS. HPLC condition: gradient: 100% solution A to 0% solution A from 0 to 60 min; flow rate: 1 mL min^−1; detector wavelength: 214 nm. Each sample had two replicates.
The compound remaining ratio was calculated as (7) Compoundremaining%=CompoundPeakAreanotat0h/CompoundPeakAreaat0h×100%

[15] = tested on: Galleria mellonella larvae; experiment: In vivo safety evaluation in G. mellonella larvae
Experimental: G. mellonella larvae (Livefoods Direct Ltd., Yorkshire, UK) were used to assess the in vivo safety of peptides. Experiments were conducted on larvae (250 ± 25 mg) incubated at 37 °C. Ten µL of compound 270 solutions with the final concentrations of 50, 80, and 120 µM were injected into the hemolymph via the second pair of prolegs (counting from the head). Control groups were injected with an equal volume of PBS. Larval survival and body weight were monitored every 1 day for a total of 5 days.

Compound | IC50 [1] [µM] | IC50 [2] [µM] | IC50 [3] [µM] | IC50 [4] [µM] | IC50 [5] [µM] | IC50 [6] [µM] | HC10 (concentration causing 10% of erythrocytes lysis) [7] [µM] | IC50 [9] [µM] | IC50 [10] [µM] | IC50 [11] [µM] | IC50 [12] [µM] | IC50 [13] [µM] | also measured
CC[C@H](C)[C@H](NC(=O)[C@H](CCCCN)NC(=O)[C@@H]1CCCN1C(=O)[C@H](CC(C)C)NC(=O)[C@@H](NC(=O)[C@H](CO)NC(=O)[C@H](CCC(=O)N1CCCCC1)NC(=O)[C@H](CC(C)C)NC(=O)[C@H](CC(=O)O)NC(=O)[C@H](CC(=O)O)NC(=O)[C@H](Cc1ccccc1)NC(=O)[C@@H](NC(=O)[C@H](CCCCN)NC(=O)[C@@H]1CCCN1C(=O)[C@H](Cc1ccccc1)NC(=O)[C@@H](N)Cc1ccccc1)[C@@H](C)CC)[C@@H](C)CC)C(=O)N[C@@H](CC(C)C)C(N)=O [174-3] (H-FFPKIFDDLE(Piperidide)SILPKIL-NH2) | 39.5 | 52.9 ± 7.31 | 57.6 ± 8.46 | 87 | 95.8 | 32.6 | 51.52 | 28.9 ± 3.53 | 29.2 ± 2.29 | 17.7 ± 2.86 | 24.2 ± 2.13 | – | IC50 [8]: 23.7 ± 1.03 µM
CC[C@H](C)[C@H](NC(=O)[C@H](CCCCN)NC(=O)[C@@H]1CCCN1C(=O)[C@H](CC(C)C)NC(=O)[C@@H](NC(=O)[C@H](CO)NC(=O)[C@H](CCC(=O)N1CCCCC1)NC(=O)[C@H](CC(C)C)NC(=O)[C@H](CC(=O)O)NC(=O)[C@H](CC(=O)O)NC(=O)[C@H](Cc1ccccc1)NC(=O)[C@@H](NC(=O)[C@H](CCCCN)NC(=O)[C@@H]1CCCN1C(=O)[C@H](Cc1ccccc1)NC(=O)[C@H](Cc1ccccc1)NC(=O)[C@H](CCCCN)NC(=O)[C@H](C)N)[C@@H](C)CC)[C@@H](C)CC)C(=O)N[C@@H](CC(C)C)C(=O)NCC(=O)N1CCC[C@H]1C(=O)N[C@@H](CC(C)C)C(=O)NCC(=O)N[C@@H](CC(C)C)C(=O)N[C@@H](C)C(=O)NCC(=O)NCCOCCOCCOCCOCCC(=O)NCCOCCOCCOCCOCCC(=O)NCCOCCOCCOCCOCCC(=O)NCCOCCOCCOCCOCCC(N)=O [compound 247] (H-AKFFPKIFDDLE(Piperidide)SILPKILGPLGLAG[PEG4][PEG4][PEG4][PEG4]-NH2) | – | > 100 | – | > 100 | > 100 | 51.9 ± 5.64 | >100 | – | – | – | – | 29.2 ± 1.33 | –
CC[C@H](C)[C@H](NC(=O)[C@H](CCCCN)NC(=O)[C@@H]1CCCN1C(=O)[C@H](CC(C)C)NC(=O)[C@@H](NC(=O)[C@H](CO)NC(=O)[C@H](CCC(=O)N1CCCCC1)NC(=O)[C@H](CC(C)C)NC(=O)[C@H](CC(=O)O)NC(=O)[C@H](CC(=O)O)NC(=O)[C@H](Cc1ccccc1)NC(=O)[C@@H](NC(=O)[C@H](CCCCN)NC(=O)[C@@H]1CCCN1C(=O)[C@H](Cc1ccccc1)NC(=O)[C@H](Cc1ccccc1)NC(=O)[C@H](CCCCN)NC(=O)[C@H](C)N)[C@@H](C)CC)[C@@H](C)CC)C(=O)N[C@@H](CC(C)C)C(=O)NCC(=O)N1CCC[C@H]1C(=O)N[C@@H](CC(C)C)C(=O)NCC(=O)N[C@@H](CC(C)C)C(=O)N[C@@H](C)C(=O)NCC(=O)NCCOCCOCCOCCOCCC(=O)NCCOCCOCCOCCOCCC(=O)NCCOCCOCCOCCOCCC(=O)NCCOCCOCCOCCOCCC(=O)NCCOCCOCCOCCOCCC(=O)NCCOCCOCCOCCOCCC(N)=O [compound 270] (H-AKFFPKIFDDLE(Piperidide)SILPKILGPLGLAG[PEG4][PEG4][PEG4][PEG4][PEG4][PEG4]-NH2) | – | > 100 | – | > 100 | > 100 | > 100 | >100 | 56.44 ± 0.25 | 54.7 ± 3.28 | 28.1 ± 1.42 | 35.3 ± 1.83 | – | IC95 value, H460 [13]: ≈ 55 µM; inhibition of HEK-293 cells at 100 µM [6]; 100: 40%; IC50 [8]: 53.6 ± 2.04 µM; remaining at 24 h, 1.5 mM ([14]; 50% human serum (50 µL 3 mM compound + 50 µL serum), 24 h, ethanol precipitation, analytical HPLC 214 nm peak area vs 0 h, read-out: remaining ratio in human serum after 24 h): ~100%; larval survival after 5 days, 50 µM ([15]; 10 µL injected into hemolymph, 50 µM, 37 °C, day 5): 77.8%; larval survival after 5 days, 80 µM ([15]; 10 µL injected into hemolymph, 80 µM, 37 °C, day 5): 88.9%; larval survival after 5 days, 120 µM ([15]; 10 µL injected into hemolymph, 120 µM, 37 °C, day 5): 77.8%; melanization of larvae ([15]; 50, 80 or 120 µM, 5 days): No melanization
CC[C@H](C)[C@H](NC(=O)[C@H](CCCCN)NC(=O)[C@@H]1CCCN1C(=O)[C@H](CC(C)C)NC(=O)[C@@H](NC(=O)[C@H](CO)NC(=O)[C@H](CCC(=O)N1CCCCC1)NC(=O)[C@H](CC(C)C)NC(=O)[C@H](CC(=O)O)NC(=O)[C@H](CC(=O)O)NC(=O)[C@H](Cc1ccccc1)NC(=O)[C@@H](NC(=O)[C@H](CCCCN)NC(=O)[C@@H]1CCCN1C(=O)[C@H](Cc1ccccc1)NC(=O)[C@H](Cc1ccccc1)NC(=O)[C@H](CCCCNC(C)=O)NC(=O)[C@H](C)N)[C@@H](C)CC)[C@@H](C)CC)C(=O)N[C@@H](CC(C)C)C(N)=O [239-4-Ac] (H-AK(Ac)FFPKIFDDLE(Piperidide)SILPKIL-NH2) | – | – | – | – | – | – | – | – | – | – | – | – | degradation in human serum, comparison in words ([14]; 50% human serum, HPLC peak area, up to 6 h (239-4-Ac) or 24 h): significantly more prone to degradation
FFPLIFGALSSILPKIL-NH2 [compound 111, Temporin‐HLa] | 11 ± 1.06 | 13.5 ± 0.8 | 7.37 ± 0.7 | 13.6 ± 0.91 | 26.3 ± 2.59 | 8.03 ± 1.1 | 6.59 | 5.14 ± 0.22 | 5.24 ± 0.15 | 5.17 ± 0.16 | 5.54 ± 0.04 | 6.03 ± 0.18 | –
FFPKIFDDLSSILPKIL-NH2 [compound 266] | > 100 | > 100 | > 100 | > 100 | > 100 | > 100 | >100 | – | – | – | – | > 100 | –
FFPKIFDDLFSILPKIL-NH2 [compound 228] | 26.4 ± 1.78 | 30.7 ± 3.14 | 30.5 ± 6.05 | 34 ± 2.66 | 34.1 ± 2.32 | 13.8 ± 1.42 | 14.57 | – | – | – | – | 17.5 ± 0.91 | –

Reference: article PMC12677599 (Advanced Science, 2025)
